Data as given in patent US20110206689A1, “Molecular Determinants Associated With Prostate Cancer And Methods Of Use Thereof” (Dana-Farber Cancer Institute, Inc., priority 2010, published 2011).

Legend:
Type in all cases: cell-based, human
C4-2 cells = experiment: Effect of TK1 suppression by shRNA on cell number of prostate cancer cells (viable cells counted with Coulter Counter); settings: C4-2 cultures, relative to shGFP control
From the text: (§1) FIG. 2. TK1 overexpression synergizes with AKT1 to promote hormone independent prostate cancer. a) Androgen independent tumor formation. LHSR-AR cells were infected with the indicated constructs and injected subcutaneously into castrated mice, except where indicated. M-myristoylated; F-Flag tagged. b) AKT1 and TK1 promote nuclear translocation of AR independent of androgen. H&E and immunhistochemical staining for AR in subcutaneous tumor sections derived from LHSR-AR cells infected with the indicated constructs. Staining of androgen dependent GFP tumor is shown as control. Minimum of 3 tumors were stained per sample and representative images are shown. c) TK1 chromosomal amplification in hormone sensitive and refractory tumors. DNA from 16 hormone sensitive (HS) and 23 hormone refractory (HR) human prostate tumors (from FIG. 1b) were hybridized onto SNP arrays and analyzed for TK1 copy number gain (CNG). The number and percentage of tumors with and without amplification are indicated. d) TK1 protein expression in hormone sensitive and refractory tumors. Prostate tumor microarrays containing 73 hormone sensitive (HS) and 11 hormone resistant (HS) tumor cores were analyzed for TK1 protein expression by immunohistochemistry. The number and percentage of tumors negative and positive for TK1 expression are indicated. d) Immunoblot analysis for TK1 expression in the indicated prostate cancer cell lines. Actin was used to control for loading. e) Effect of TK1 suppression on the proliferation of prostate cancer cells. Cells were infected with three different hairpins targeting TK1 and a control hairpin targeting GFP, and cell numbers determined 5 days post infection. Relative cell number is normalized to the shGFP control.
(§2) LHSR-AR {Berger, 2004 #15}, LNCaP {Horoszewicz, 1980 #23}, C4-2 {Wu, 1994 #18}, CL-1 {Patel, 2000 #16}, LNCaP-abl {Culig, 1999 #49} and LAPC4 {Klein, 1997 #34} cells have previously been described. LHSR-AR cells were cultured in PrEGM with growth supplements (Lonza). LNCaP were cultured in RPMI supplemented with 10% fetal bovine serum, 1 mM sodium pyruvate and 10 mM Hepes. C4-2, CL-1 and LNCaP-abl were cultured in phenol red free RMPI supplemented with 10% charcoal stripped fetal bovine serum, 1 mM sodium pyruvate and 10 mM Hepes. LAPC4 cells were cultured in IMDM supplemented with 10% fetal bovine serum and 1 nM R1881.
(§3) Stable suppression of TK1 and AR were accomplished by using the pLKO.1-puro lentiviral shRNA constructs previously described {Moffat, 2006 #52}. The sequences targeted by the hairpins are as follows: shTK1-3, […] […] Viable cells were counted using a Coulter Counter.
(§4) Next, we determined whether suppressing the expression of TK1 in prostate cancer cell lines that overexpress TK1 reverses their ability to proliferate or survive. […]

CL-1 cells = experiment: as above; settings: relative to shGFP control
From the text: as §1, §2, §3, §4

[1] = test system: prostate cancer cell lines; experiment: Effect of TK1 shRNA on proliferation of prostate cancer cell lines (all cultures); settings: for cells remaining 12 days post infection: all cultures
From the text: as §1, with “Cells were infected with three different hairpins targeting TK1 and a control hairpin targeting GFP, and cell numbers determined 5 days post infection.” left out
Stable suppression of TK1 and AR were accomplished by using the pLKO.1-puro lentiviral shRNA constructs previously described {Moffat, 2006 #52}. The sequences targeted by the hairpins are as follows: shTK1-3, […] (SEQ ID NO: 1); shTK1-4, […] (SEQ ID NO: 2); shTK1-5, […] (SEQ ID NO: 3); shAR-1, […] […] Viable cells were counted using a Coulter Counter.
as §4

TK1 [2] = experiment: Androgen induction of TK1 protein expression in LNCaP cells (immunoblot); settings: LNCaP cells in hormone depleted medium, 10 nM R1881, immunoblot
Procedure: FIG. 3. […] Androgen responsive LNCaP cells cultured in hormone depleted medium were treated with 10 nM of the synthetic androgen, R1881, for the indicated times, and TK1 expression was assayed by immunoblot analysis. […] Small hairpins targeting AR were introduced into LNCaP cells infected with TK1, or control uninfected LNCaP cells. Cell proliferation was monitored. Relative proliferation is normalized to the shGFP control.
(§5) Immunoblots were performed as previously described {Boehm, 2005 #51}. The following antibodies were used: TK1 (Abcam, ab57757), AR (Santa Cruz, sc-7305), Flag (Sigma, M2), PDK1 (Becton Dickinson, 611070), p-PDK1 (Becton Dickinson, 558395), AKT (Cell Signaling, 9272), p-AKT1-Thr308 (Cell Signaling, 4056), p-AKT1-Ser473 (Cell Signaling, 9271), p-AKT1-Thr450 (Cell Signaling, 9267), p-AKT1-Tyr326 (Cell Signaling, 2968), Actin (Santa Cruz, sc-47778).
TK1 has been reported to be induced by androgens in the rat prostate. […] To elucidate whether TK1 is sufficient to replace AR signaling in promoting cell proliferation and survival, we silenced AR expression in LNCaP cells by RNAi in the presence or absence of ectopic TK1 expression, and monitored cell death.

TK1 [3] = experiment: Suppression of TK1 expression by shRNA in prostate cancer cell lines; settings: lentiviral shRNA
Procedure: as §5
Stable suppression of TK1 and AR were accomplished by using the pLKO.1-puro lentiviral shRNA constructs previously described {Moffat, 2006 #52}. The sequences targeted by the hairpins are as follows: shTK1-3, […] (SEQ ID NO: 1); shTK1-4, […] (SEQ ID NO: 2); shTK1-5, […] (SEQ ID NO: 3); shAR-1, […] (SEQ ID NO: 4); shAR-4, […] (SEQ ID NO: 5); shAR-5, […] (SEQ ID NO: 6); shGFP, Experiments were performed in duplicate, in both the presence and absence of 1.5 ug/ml puromycin to monitor infection efficiency. Viable cells were counted using a Coulter Counter.
as §4

| Compound | cell number 5 days post infection (C4-2 cells) | cell number 5 days post infection (CL-1 cells) | cells remaining 12 days post infection [1] | TK1 protein expression (TK1 [2]) | suppression of TK1 expression (TK1 [3]) | proliferation ([1]; prostate cancer cell lines, 5 days post infection) |
| --- | --- | --- | --- | --- | --- | --- |
| shTK1-4: pLKO.1-puro lentiviral shRNA targeting TK1 sequence GGGAAGCCGCCTATACCAAGA (SEQ ID NO: 2) (target site or template, no part of the molecule) | reduced cell number | did not significantly affect | few cells remaining | – | – | – |
| C[C@]1(O)CC[C@H]2[C@@H]3CCC4=CC(=O)CCC4=C3C=C[C@@]21C [R1881] | – | – | – | androgen induced | – | – |
| shTK1-3: pLKO.1-puro lentiviral shRNA targeting TK1 sequence AGACCGTAATTGTGGCTGCAC (SEQ ID NO: 1) (target site or template, no part of the molecule) | – | – | – | – | did not efficiently suppress TK1 expression | did not affect proliferation |
| shTK1-5: pLKO.1-puro lentiviral shRNA targeting TK1 sequence TGTCGGCTCTGCTACTTCAAG (SEQ ID NO: 3) (target site or template, no part of the molecule) | reduced cell number | did not significantly affect | few cells remaining | – | – | – |
